We go through two molecules from patent US20220143212A1, “MAMC-MEDIATED BIOMIMETIC NANOPARTICLES” (UNIVERSIDAD DE GRANADA, priority 2018, published 2022).

Data set [1] has as its system 4T1 cells. Put plainly: Detection of ROS production (CellROX Green, confocal). It counts as cell-based, murine. To be noted: 100 μM, positive control. On the procedure:
To measure the potential oxidative stress in living cells, as a consequence of the presence of the BMNPs, CelIROX® Green Reagent (ThermoFisher) was used following the protocol recommended by the manufacturer. Briefly, cells (approximately 20×10^3 4T1/well) were seeded on glass coverslips in 24-well plates. After their exposure to different concentrations (0.1, 1, 10, 100 μg/mL), in the presence and absence of a gradient magnetic field, of BMNPs for 4 hours, the cells were washed with PBS and CelIROX® Green Reagent was added to a final concentration of 5 μM in 300 μl of DMEM medium without serum. Then, the plate was incubated in the dark at 37° C. for 30 minutes. Menadione (100 μM) was used as a positive control. After the incubation time, the coverslips were washed with PBS pH 7.2, fixed with 4% paraformaldehyde in PBS, washed again and permeabilized with 0.1% Triton-X100 for 10 minutes. Finally, the coverslips were stained and mounted on specimen slides (Biosigma). […] Therefore, the emission of green fluorescence (at 485/520 nm) is stable and is produced after the DNA binding, and therefore its signal is mainly located in the nucleus and in the mitochondria. Fluorescence was detected using a Spectral Confocal Leica TCS SP2 AOBS microscope. […]

The subject of data set [2] is 4T1 cells. Put plainly: Confocal analysis of DOXO internalization. It counts as cell-based, murine. To be noted: soluble drug, positive control. On the procedure:
Cells (approximately 20×10^3 4T1/well) were seeded on glass coverslips in 24-well plates and, after 24 h, soluble DOXO (as a positive control) or DOXO-BMNP suspensions were added. After incubation at 37° C. for different periods of time (30 seconds, 5 and 30 minutes) in the absence (−GMF) and in the presence (+GMF) of a gradient magnetic field, coverslips were washed with fresh PBS pH 7.2 and fixed with paraformaldehyde (2% wt in PBS). To minimize unspecific interactions and permeabilize cells, coverslips were washed with Tris-Buffered Saline (TBS) containing 5% Bovine Serum Albumin (BSA), 0.1% Triton X-100 and 5% got serum and then stained. In particular cytoskeletal actin microfilaments were stained with FITC-phalloidin (Sigma-Aldrich, excitation at 488 nm; emission at 500-535 nm) and nuclei were stained with TO-PRO-3 (1/70, Life Technologies; excitation at 633 nm; emission at 650-750 nm). DOXO was detected after excitation at 476 nm and emission at 575-630 nm. Fluorescence was detected using a Leica TCS SP2 AOBS Spectral Confocal Scanner microscope. Images were taken at 400× magnification. ImageJ software was used for analysis.

A further data set concerns 4T1 tumors. Put plainly: In vivo magnetic targeting and antitumor activity. Also noted: species or system BALB/c mice. To be noted: day 15, 2 mg/kg DOXO i.v. x5. The text has this: Female BALB/c mice were inoculated with 10^5 4T1 cells into a mammary gland fat pad. […] The 6 groups were intravenously injected and treated as follows: i) PBS (control), ii-iii) DOXO-BMNPs +/−gradient magnetic field, iv-v) BMNPs +/−gradient magnetic field, and vi) soluble DOXO. […] The magnetic field was applied by attaching a 10 mm in diameter×3 mm thick N42 neodymium magnet (1.8 kg pull, Magnet Expert Ltd) with 3MTM Vetbond™ tissue adhesive on the tumor site and keeping it attached for 1 hour after the injection. This neodymium magnet, with a magnetic anisotropy normal to the plane and a saturation magnetization of 800 emu/cc, could generate a direct current (d.c.) magnetic field of the order of 100 Oe a few millimeters from the surface. Therefore, the effect of the magnet is equivalent to the application of a local 100-Oe external d.c. magnetic field immediately after the administration of the nanoparticles. Throughout the study, body weight and tumor volumes (measured with caliper) were recorded every 3-4 days. Three days after the last injections (day 18), mice were euthanized, their weights, as well as, tumor weights were recorded and, then, tumors, hearts, livers, spleens, brains, lungs, and kidneys were collected for histology. Histological sections of the tumors were prepared for hematoxylin-eosin and Prussian blue staining to analyze particle biodistribution.

Regarding `CC1=CC(=O)c2ccccc2C1=O` [Menadione], the ROS release result in the data set on 4T1 cells [1] is recorded as “clearly visible”.

`COc1cccc2c1C(=O)c1c(O)c3c(c(O)c1C2=O)C[C@@](O)(C(=O)CO)C[C@@H]3O[C@H]1C[C@H](N)[C@H](O)[C@H](C)O1` [soluble DOXO, doxorubicin]: the “internalization of DOXO in cell nuclei (confocal)” value in the data set with 4T1 cells [2] was “detected only after 5 min”. For the same molecule, in the data set with 4T1 tumors, the tumor volume result is “significantly reduced”.
